In PubChem BioAssay (NCI):
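Results reflect a 48-hour exposure of cells in 96-well plates to compound at five concentrations. GI50: concentration for 50% inhibition of growth. TGI: total growth inhibition.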

Assays:
Test in all cases: NCI tumour cell line growth inhibition, 48 h
[1] = tested on: HCT-116 colon
[2] = tested on: KM20L2 colon
[3] = tested on: M19-MEL melanoma
[4] = tested on: SNB-75 CNS
[5] = tested on: BT-549 breast
[6] = tested on: DU-145 prostate
[7] = tested on: HS 578T breast
[8] = tested on: MCF7 breast
[9] = tested on: MDA-MB-231 breast
[10] = tested on: MDA-N
[11] = tested on: NCI/ADR-RES ovarian

Compound | TGI [1] [µM] | TGI [2] [µM] | TGI [3] [µM] | TGI [4] [µM] | TGI [5] [µM] | TGI [6] [µM] | TGI [7] [µM] | TGI [8] [µM] | TGI [9] [µM] | TGI [10] [µM] | TGI [11] [µM] | GI50 [5] [µM] | GI50 [6] [µM] | GI50 [7] [µM] | GI50 [9] [µM] | GI50 [11] [µM] | GI50 [4] [µM] | GI50 [3] [µM] | GI50 [1] [µM] | GI50 [8] [µM]
N=C1SCCS1 | > 100 | > 100 | > 100 | > 100 |  |  |  |  |  |  |  |  |  |  |  |  |  |  |  | 
Nc1cccc2cc(S(=O)(=O)Nc3ccc(C(=O)O)cc3)ccc12 | > 100 |  |  | > 100 | > 100 | > 100 | > 100 | > 100 | > 100 | > 100 | > 100 |  |  |  |  |  |  |  |  | 
CC(C)=CCC/C(C)=C/CC/C(C)=C/C(O)c1ccccc1 (centres undefined) | 32.2 | 36 | 34.6 |  |  |  |  |  |  |  |  |  |  |  |  |  |  |  |  | 
O=C1c2ccccc2-c2ccc(N(Cc3ccc(Br)cc3)Cc3ccc(Br)cc3)cc21 | > 100 |  |  | > 100 | > 100 | > 100 | > 100 | > 100 | > 100 | > 100 | > 100 |  |  |  |  |  |  |  |  | 
O=C(c1no[n+]([O-])c1C(=O)c1csc2ccccc12)c1csc2ccccc12 | 25.9 |  |  | 28.5 | 19.3 | 32.3 | > 57.3 | 25 | 18.4 | 21.6 | 56.3 |  |  |  |  |  |  |  |  | 
CC(=O)NC1C(OCc2ccccc2)OC(CO)C(O)C1OC(C)C(=O)NC(C(=O)NC(CCC(=O)Nc1ccc2c(c1)CN1C(=O)c3ccccc3C1=N2)C(N)=O)C(C)C (centres undefined) | > 100 |  |  | > 100 | > 100 | > 100 | > 100 | > 100 | > 100 | > 100 | > 100 |  |  |  |  |  |  |  |  | 
NC(=O)OCc1c(O)c2c(c(O)c1COC(N)=O)C(=O)C=CC2=O | > 100 | > 100 | 11.8 | > 100 |  |  |  |  |  |  |  |  |  |  |  |  |  |  |  | 
CC(=O)Nc1ccc2c(c1)C(=Nc1ccc(C(=O)O)cc1)c1ccccc1-2 | > 100 |  |  |  | > 100 | > 100 | > 100 | > 100 |  | > 100 | > 100 |  |  |  |  |  |  |  |  | 
CCOC(=O)c1c(C)n(-c2ccc(C)cc2)c2c1cc(O)c1[nH]c3c(c12)CCCC3 | 92.6 |  |  | 12.4 | 26.2 | 42.5 |  | 65.6 | 81.7 | 46.6 | > 100 |  |  |  |  |  |  |  |  | 
CC(C)c1cccc(C(C)C)c1NC(=S)Nc1ccccc1 | > 100 | > 100 | > 100 | > 100 |  |  |  |  |  |  |  |  |  |  |  |  |  |  |  | 
O=C1C(c2c(O)n(-c3ccccc3)c3ccccc23)=Nc2ccccc21 | > 100 |  |  | 40.4 | > 100 | > 100 | > 100 | 37 | 81.5 | > 100 | > 100 |  |  |  |  |  |  |  |  | 
CSc1nc(NC2OC(CO)C(O)C(O)C2O)c(N)c(=O)n1C (centres undefined) | > 100 | > 100 | > 100 | > 100 |  |  |  | > 100 |  |  | > 100 |  |  |  |  |  |  |  |  | 
CCCCC[C@H]1CC=CC(=O)O1 | 12.9 |  |  |  | 20.3 | 36.1 | 50.6 | 19.6 | 23 | 23 | 27.1 |  |  |  |  |  |  |  |  | 
CCCCCCCCCCCCCCCc1ccc(C(=O)C[n+]2ccccc2)cc1 |  |  |  |  | 12.3 | 2.44 | 4.25 |  | 2.23 |  |  | 2.88 | 1.2 | 1.75 | 0.886 |  |  |  |  | 
CCN(CC)CCSc1nc2c([N+](=O)[O-])cccc2[nH]1 |  |  | > 100 | > 100 |  |  |  |  |  |  |  |  |  |  |  |  |  |  |  | 
COC(=O)c1c(OC(C)=O)ccc2c1c1c(n2Cc2ccccc2)C(=O)c2ccccc2C1=O | 34.2 |  |  | 52.4 | 48.5 | 36.5 | 48.3 | > 100 | 36.8 | 38.3 | 61.6 |  |  |  |  |  |  |  |  | 
O=C1Nc2ccccc2/C1=C\c1c(Cl)[nH]c2ccccc12 |  |  |  |  | 6.22 | 20 | 2.57 | 10.6 | 14.3 | 0.486 | 1.31 |  |  |  |  |  |  |  |  | 
COc1ccc([N+](=O)[O-])cc1[I+]c1cc([N+](=O)[O-])ccc1OC | > 100 |  |  |  | > 100 | > 100 | > 100 | > 100 | > 100 |  | > 100 |  |  |  |  |  |  |  |  | 
N/C(=N/O)c1cn(C2OC(CO)C(O)C2O)c2ncnc(NO)c12 (centres undefined) | > 77.4 |  |  |  | > 100 | > 40 | > 100 | 23.2 | 5.05 | > 100 | 7.19 |  |  |  |  |  |  |  |  | 
N=C(N)c1ccc(-c2ccc(-c3ccccc3)o2)cc1 |  |  |  | 3.43 | 39.9 | 7.93 | 7.04 |  | 4.08 |  | 5.85 | 13.1 | 2.72 | 2.58 | 1.93 | 2.2 | 1.45 |  |  | 
CC[n+]1c(/C=C/c2ccc(N(CCCl)CCCl)cc2)ccc2cc(Br)ccc21 | 482 | 11.9 |  | 0.936 |  |  |  |  |  |  |  |  |  |  |  |  |  | 134 |  | 
COc1cccc(/C=N/[N-]C(N)=O)c1[O-].[OH3+].[Zn+2] | > 100 | > 100 |  | > 100 |  |  |  |  |  |  |  |  |  |  |  |  |  |  |  | 
O=C(Nc1ccc(-n2cc(-c3ccncc3)c(-c3ccc(O)c(Cl)c3)n2)cc1)c1ccc(Cl)c(Cl)c1 | > 32.5 |  |  | > 32.5 |  | > 32.5 | > 32.5 | > 32.5 | 1.11 |  | > 32.5 |  | 3.91 | 0.791 | 0.51 | 2.02 | 2.64 |  | 1.23 | 2.04
Cc1ccc(CCCC(=O)O)cc1C | > 100 |  |  | > 100 | > 100 | > 100 |  |  | > 100 | > 100 | > 100 |  |  |  |  |  |  |  |  | 
CNC1=C(C)C(=O)C2=C(C1=O)C(COC(N)=O)C1(OC)C3NC3CN21 (centres undefined) | > 100 |  |  | 0.971 |  |  | 30.5 | 10.6 |  | 5.65 |  |  |  |  |  |  |  |  |  | 
CC(=O)NC1C(OCc2ccccc2)OC(CO)C(O)C1OCC(=O)NC(C)C(=O)NC(CCC(=O)Nc1ccc2c(c1)CN1C(=O)c3ccccc3C1=N2)C(N)=O (centres undefined) | > 100 |  |  | > 100 | > 100 | > 100 | > 100 | > 100 | > 100 | > 100 | > 100 |  |  |  |  |  |  |  |  | 
